Target: T1, human p38 kinase alpha (Homo sapiens, UniProt Q16539)
T1 construct: The coding region of the human p38α cDNA was obtained by PCR-amplification from RNA isolated from the human monocyte cell line THP.1; made in house; host or cells: E. coli DH10B
Assay: In vitro p38 kinase inhibition analysis (PHAS-I 32P-ATP or EGFRP 33P-ATP format)
Assay type: biochemical
Conditions: Table 2; additional pyrazole compounds, Examples 56-169; read-out: p38α Kinase Inhibition (IC50 in μM)
Method: The ability of compounds to inhibit human p38 kinase alpha was evaluated using one of two in vitro assay methods. In the first method, activated human p38 kinase alpha phosphorylates a biotinylated substrate, PHAS-I (phosphorylated heat and acid stable protein-insulin inducible), in the presence of gamma ^32P-ATP (^32P-ATP). PHAS-I was biotinylated before the assay, and provided a means of capturing the substrate which was phosphorylated during the assay. p38 Kinase was activated by MKK6. Compounds were tested in 10 fold serial dilutions over the range of 100 μM to 0.001 μM using 1% DMSO. Each concentration of inhibitor was tested in triplicate.
All reactions were carried out in 96 well polypropylene plates. Each reaction well contained 25 mM HEPES pH 7.5, 10 mM magnesium acetate, and 50 μM unlabeled ATP. […] Activated human p38 kinase alpha was used at 1 μg per 50 μl reaction volume, representing a final concentration of 0.3 μM. Gamma ^32P-ATP was used to follow the phosphorylation of PHAS-I. ^32P-ATP has a specific activity of 3000 Ci/mmol, and was used at 1.2 μCi per 50 μl reaction volume. The reaction proceeded either for one hr or overnight at 30° C.
Following incubation, 20 μl of reaction mixture was transferred to a high capacity streptavidin coated filter plate (SAM-streptavidin-matrix, Promega) prewetted with phosphate buffered saline. The transferred reaction mix was allowed to contact the streptavidin membrane of the Promega plate for 1-2 min. […] Filter plates were air dried and 20 μl of scintillant was added. The plates were sealed and counted.
A second assay format was alternatively employed. This assay is based on p38 kinase alpha being induced phosphorylation of EGFRP (epidermal growth factor receptor peptide, a 21 mer) in the presence of ^33P-ATP. Compounds were tested in 10 fold serial dilutions over the range of 100 μM to 0.001 μM in 10% DMSO. Each concentration of inhibitor was tested in triplicate. Compounds were evaluated in 50 μl reaction volumes in the presence of 25 mM HEPES pH 7.5, 10 mM magnesium acetate, 4% glycerol, 0.4% bovine serum albumin, 0.4 mM DTT, 50 μM unlabeled ATP, 25 μg EGFRP (200 μM), and 0.05 uCi gamma ^33P-ATP. Reactions were initiated by addition of 0.09 μg of activated, purified human GST-p38 kinase alpha. Activation was carried out using GST-MKK6 (5:1,p38:MKK6) for one hr at 30° C. in the presence of 50 μM ATP. Following incubation for 60 min at room temperature, the reaction was stopped by addition of 150 μl of AG 1×8 resin in 900 mM sodium formate buffer, pH 3.0 (1 volume resin to 2 volumes buffer). The mixture was mixed three times with pipetting. Afterward, the resin was allowed to settle. A total of 50 μl of clarified solution head volume was transferred from the reaction wells to Microlite-2 plates. 150 μl of Microscint 40 was then added to each well of the Microlite plate, and the plate was sealed, mixed, and counted.

T1 sequence (Q16539 whole entry): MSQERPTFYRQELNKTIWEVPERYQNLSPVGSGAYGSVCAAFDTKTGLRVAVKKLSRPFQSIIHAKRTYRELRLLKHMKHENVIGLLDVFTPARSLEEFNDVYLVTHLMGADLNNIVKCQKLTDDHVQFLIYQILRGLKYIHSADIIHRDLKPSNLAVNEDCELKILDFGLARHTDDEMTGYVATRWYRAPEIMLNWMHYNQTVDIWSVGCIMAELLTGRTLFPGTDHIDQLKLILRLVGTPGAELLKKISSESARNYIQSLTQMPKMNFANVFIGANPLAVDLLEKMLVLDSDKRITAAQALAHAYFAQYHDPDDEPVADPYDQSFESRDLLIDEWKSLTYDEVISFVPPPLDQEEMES

| Structure (SMILES) | IC50 |
| --- | --- |
| O=C(CO)N1CCC(c2[nH]nc(-c3ccc(F)c(F)c3)c2-c2ccncn2)CC1 [Example 60] | 0.753 µM |
| COCCOCC(=O)N1CCC(c2[nH]nc(-c3ccc(Cl)cc3)c2-c2ccncn2)CC1 [Example 61] | 0.764 µM |
| C[C@H](O)[C@@H](O)C(=O)N1CCC(c2[nH]nc(-c3ccc(Cl)cc3)c2-c2ccncn2)CC1 [Example 64] | 0.596 µM |
| COc1cc(-c2n[nH]c(C3CCN(C(=O)CO)CC3)c2-c2ccncn2)ccc1Cl [Example 72] | 4.6 µM |
| COc1ccc(-c2n[nH]c(C3CCN(C(=O)CO)CC3)c2-c2ccncn2)cc1Cl [Example 73] | 1.2 µM |
| N#Cc1ccc(-c2n[nH]c(C3CCN(C(=O)CO)CC3)c2-c2ccncn2)cc1 [Example 74] | 7.06 µM |
| O=C(CO)N1CCC(c2[nH]nc(-c3cc(Cl)cc(Cl)c3)c2-c2ccncn2)CC1 [Example 75] | 3.39 µM |
| O=C(CO)N1CCC(c2[nH]nc(-c3cc(F)cc(F)c3)c2-c2ccncn2)CC1 [Example 76] | 6.2 µM |
| COc1cc(Cl)ccc1-c1n[nH]c(C2CCN(C(=O)COC(C)=O)CC2)c1-c1ccncn1 [Example 77] | 22.8 µM |
| O=C(CO)N1CCC(c2[nH]nc(-c3ccc(Cl)c(C(F)(F)F)c3)c2-c2ccncn2)CC1 [Example 78] | 3.16 µM |
| COc1cc(Cl)ccc1-c1n[nH]c(C2CCN(C(=O)CO)CC2)c1-c1ccncn1 [Example 79] | 19.3 µM |
| O=C(CO)N1CCC(c2[nH]nc(-c3cccc(F)c3F)c2-c2ccncn2)CC1 [Example 80] | 2.45 µM |
| O=C(CO)N1CCC(c2[nH]nc(-c3c(F)cccc3F)c2-c2ccncn2)CC1 [Example 81] | 4.82 µM |
| CCc1ccc(-c2n[nH]c(C3CCN(C(=O)CO)CC3)c2-c2ccncn2)cc1 [Example 82] | 5.85 µM |
| O=C(CO)N1CCC(c2[nH]nc(-c3cccc(OC(F)(F)F)c3)c2-c2ccncn2)CC1 [Example 83] | 25.7 µM |
| COc1ccc(-c2n[nH]c(C3CCN(C(=O)CO)CC3)c2-c2ccncn2)cc1 [Example 84] | 1.5 µM |
| COc1cccc(-c2n[nH]c(C3CCN(C(=O)CO)CC3)c2-c2ccncn2)c1 [Example 85] | 2.1 µM |

| Structure (SMILES) | IC50 |
| --- | --- |
| O=C(CO)N1CCC(c2[nH]nc(-c3cc(F)ccc3F)c2-c2ccncn2)CC1 [Example 87] | 1.75 µM |
| Cc1c(Cl)cccc1-c1n[nH]c(C2CCN(C(=O)CO)CC2)c1-c1ccncn1 [Example 88] | 0.974 µM |
| CC(=O)OCC(=O)N1CCC(c2[nH]nc(-c3ccc(Cl)cc3)c2-c2ccnc(S(C)(=O)=O)n2)CC1 [Example 95] | 3.31 µM |
| O=C(CO)N1CCC(c2[nH]nc(-c3ccc(Cl)cc3O)c2-c2ccncn2)CC1 [Example 98] | 1.31 µM |
| CC(C)CCNc1nccc(-c2c(-c3ccc(Cl)cc3)n[nH]c2C2CCN(C(=O)CO)CC2)n1 [Example 100] | 0.859 µM |
| O=C(CO)N1CCC(c2[nH]nc(-c3cc(F)cc(C(F)(F)F)c3)c2-c2ccncn2)CC1 [Example 101] | 2.71 µM |
| O=C(CO)N1CCC(c2[nH]nc(-c3cccc(C(F)(F)F)c3F)c2-c2ccncn2)CC1 [Example 103] | 5.46 µM |
| O=C(CO)N1CCC(c2[nH]nc(-c3cc(F)cc(Cl)c3)c2-c2ccncn2)CC1 [Example 104] | 1.1 µM |
| C[C@H](O)C(=O)N1CCC(c2[nH]nc(-c3cc(F)cc(Cl)c3)c2-c2ccncn2)CC1 [Example 108] | 1.62 µM |
| C[C@H](O)C(=O)N1CCC(c2[nH]nc(-c3cccc(C(F)(F)F)c3F)c2-c2ccncn2)CC1 [Example 112] | 5.18 µM |
| C[C@H](O)C(=O)N1CCC(c2[nH]nc(-c3cc(F)cc(C(F)(F)F)c3)c2-c2ccncn2)CC1 [Example 115] | 8.48 µM |
| CN(C)CCOc1nccc(-c2c(-c3cccc(Cl)c3)n[nH]c2C2CCN(C(=O)CO)CC2)n1 [Example 116] | 0.727 µM |
| CN(C)CCNc1nccc(-c2c(-c3cccc(Cl)c3)n[nH]c2C2CCN(C(=O)CO)CC2)n1 [Example 117] | 0.699 µM |
| CN(C)CCNc1nccc(-c2c(-c3ccc(F)c(C(F)(F)F)c3)n[nH]c2C2CCN(C(=O)CO)CC2)n1 [Example 118] | 0.814 µM |
| C[C@@H](N[C@H]1CC[C@H](c2[nH]nc(-c3ccc(Cl)cc3)c2-c2ccncn2)CC1)c1ccccc1 [Example 123] | 0.0427 µM |
| C[C@@H](N[C@H]1CC[C@H](c2[nH]nc(-c3ccc(Cl)cc3)c2-c2ccncn2)CC1)c1ccccc1 [Example 124] | 0.0452 µM |

The remaining molecules from weak to strong by IC50, led by results:

| IC50 | Structure (SMILES) |
| --- | --- |
| 0.454 µM | O=C(CO)N1CCC(c2[nH]nc(-c3cc(C(F)(F)F)ccc3F)c2-c2ccncn2)CC1 [Example 102] |
| 0.444 µM | Cc1ccc(-c2n[nH]c(C3CCN(C(=O)CO)CC3)c2-c2ccncn2)cc1Cl [Example 71] |
| 0.438 µM | C[C@H](O)C(=O)N1CCC(c2[nH]nc(-c3cc(C(F)(F)F)ccc3F)c2-c2ccncn2)CC1 [Example 111] |
| 0.416 µM | O=C([C@H](O)CO)N1CCC(c2[nH]nc(-c3ccc(Cl)cc3)c2-c2ccncn2)CC1 [Example 63] |
| 0.411 µM | C[C@@H](O)C(=O)N1CCC(c2[nH]nc(-c3cccc(Cl)c3F)c2-c2ccncn2)CC1 [Example 114] |
| 0.379 µM | C[C@H](O)C(=O)N1CCC(c2[nH]nc(-c3cccc(Cl)c3F)c2-c2ccncn2)CC1 [Example 109] |
| 0.377 µM | CN(C)CCOc1nccc(-c2c(-c3ccc(Cl)cc3)n[nH]c2C2CCN(C(=O)CO)CC2)n1 [Example 97] |
| 0.34 µM | O=C(CO)N1CCC(c2[nH]nc(-c3ccc(Cl)cc3)c2-c2ccnc(O[C@@H]3CCOC3)n2)CC1 [Example 90] |
| 0.297 µM | CSc1nccc(-c2c(-c3ccc(Cl)cc3)n[nH]c2C2CCN(C(=O)COC(C)=O)CC2)n1 [Example 93] |
| 0.297 µM | O=C(CO)N1CCC(c2[nH]nc(-c3cccc(Cl)c3F)c2-c2ccncn2)CC1 [Example 106] |
| 0.256 µM | O=C([C@@H](O)CO)N1CCC(c2[nH]nc(-c3ccc(Cl)cc3)c2-c2ccncn2)CC1 [Example 65] |
| 0.255 µM | C[C@H](O)C(=O)N1CCC(c2[nH]nc(-c3cc(Cl)ccc3F)c2-c2ccncn2)CC1 [Example 110] |
| 0.248 µM | O=C(CO)N1CCC(c2[nH]nc(-c3ccc(F)cc3F)c2-c2ccncn2)CC1 [Example 67] |
| 0.247 µM | O=C(CO)N1CCC(c2[nH]nc(-c3cc(Cl)ccc3F)c2-c2ccncn2)CC1 [Example 105] |
| 0.216 µM | CC(=O)OCC(=O)N1CCC(c2[nH]nc(-c3ccc(Cl)c(Cl)c3)c2-c2ccncn2)CC1 [Example 66] |
| 0.207 µM | C[C@@H](O)C(=O)N1CCC(c2[nH]nc(-c3ccc(Cl)cc3F)c2-c2ccncn2)CC1 [Example 113] |
| 0.147 µM | O=C(CO)N1CCC(c2[nH]nc(-c3ccc(F)c(Cl)c3)c2-c2ccncn2)CC1 [Example 70] |
| 0.14 µM | O=C(CO)N1CCC(c2[nH]nc(-c3ccc(Cl)cc3)c2-c2ccnc(O[C@H]3CCOC3)n2)CC1 [Example 92] |
| 0.133 µM | O=C(CO)N1CCC(c2[nH]nc(-c3ccc(Cl)c(Cl)c3)c2-c2ccncn2)CC1 [Example 69] |
| 0.13 µM | C[C@@H](N[C@H]1CC[C@@H](c2[nH]nc(-c3ccc(Cl)cc3)c2-c2ccncn2)CC1)c1ccc(F)cc1 [Example 126] |
| 0.108 µM | N#Cc1ccc(Oc2nccc(-c3c(-c4ccc(Cl)cc4)n[nH]c3C3CCN(C(=O)CO)CC3)n2)cc1 [Example 94] |
| 0.0777 µM | C[C@H](O)C(=O)N1CCC(c2[nH]nc(-c3ccc(Cl)cc3F)c2-c2ccncn2)CC1 [Example 107] |
| 0.0697 µM | N#Cc1cccc(Oc2nccc(-c3c(-c4ccc(Cl)cc4)n[nH]c3C3CCN(C(=O)CO)CC3)n2)c1 [Example 96] |
| 0.0449 µM | C[C@@H](N[C@H]1CC[C@@H](c2[nH]nc(-c3ccc(Cl)cc3)c2-c2ccncn2)CC1)c1ccccc1 [Example 122] |
| 0.0438 µM | CN(C)CC(=O)OCC(=O)N1CCC(c2[nH]nc(-c3ccc(Cl)cc3)c2-c2ccncn2)CC1 [Example 130] |
| 0.00856 µM | C[C@H](N[C@H]1CC[C@H](c2[nH]nc(-c3ccc(Cl)cc3)c2-c2ccncn2)CC1)c1ccccc1 [Example 121] |
| 0.00576 µM | C[C@H](N[C@H]1CC[C@H](c2[nH]nc(-c3ccc(Cl)cc3)c2-c2ccncn2)CC1)c1ccc(F)cc1 [Example 128] |

From patent US20040082551A1, “Novel pyrazoles and their use as p38 kinase inhibitors” (priority 2002, published 2004)
